Where a name gives a salt, the structure may show the parent alone.
molecular target: T1, squalene synthase (Rattus norvegicus, UniProt Q02769); assay: Squalene Synthase Inhibition Assay (rat liver microsomes, [3H]FPP substrate, HEPES buffer); type: biochemical, male Sprague-Dawley rats
T1 construct: Microsomes are prepared by centrifugation (100,000 g) and then resuspended in the assay buffer; from tissue; host or cells: liver microsomes of male Sprague-Dawley rats (animals from Taconic Farms)
T1 sequence (Q02769 1-416): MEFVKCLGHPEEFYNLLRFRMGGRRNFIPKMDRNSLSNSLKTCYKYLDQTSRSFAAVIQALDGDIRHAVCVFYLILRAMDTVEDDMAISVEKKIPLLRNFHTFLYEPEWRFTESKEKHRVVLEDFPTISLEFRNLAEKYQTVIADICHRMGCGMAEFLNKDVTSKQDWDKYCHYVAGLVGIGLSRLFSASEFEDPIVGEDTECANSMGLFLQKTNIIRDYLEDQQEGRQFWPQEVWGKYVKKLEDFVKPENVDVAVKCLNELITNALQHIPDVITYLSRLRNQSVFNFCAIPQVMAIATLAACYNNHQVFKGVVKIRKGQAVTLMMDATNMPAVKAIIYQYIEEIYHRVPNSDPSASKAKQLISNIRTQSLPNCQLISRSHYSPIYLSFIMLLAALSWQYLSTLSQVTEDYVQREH
Procedure: Squalene Synthase Inhibition Assay
The squalene synthase assay used is described by Amin et al. in "Bisphosphonates Used for the Treatment of Bone Disorders Inhibit Squalene Synthase and Cholesterol Biosynthesis," Journal of Lipid Research, 33, 1657-1663 (1992).
I. Preparation of Assay Substances:
Test solutions are prepared fresh in 100% DMSO or dH2 O. Subsequent dilutions are made in the same solvent. Compounds are tested initially at 1 μM (final concentrations).
Potassium Phosphate (50 mM,) pH 7.4, and HEPES (4-(2-hydroxyethyl)-1-piperazineethanesulfonic acid, 50 mM) pH 7.4 stock buffers are prepared and stored at 4° C. until use.
C) Microsomal Enzyme Preparation:
Fresh livers from male Sprague-Dawley rats (Taconic Farms, Germantown, N.Y.) weighing 150-200 g are collected after exsanguination. All subsequent procedures are performed at 4° C. The liver is homogenized in the assay buffer (50 mM, pH 7.4). Cellular fractions are separated as described by Popjak, G. in "Enzymes of sterol biosynthesis in liver and intermediates of sterol biosynthesis," Meth. Enzymol. 15 393-454 (1969). Microsomes are prepared by centrifugation (100,000 g) and then resuspended in the assay buffer. Microsomes are rehomogenized with a motor-driven Teflon pestle to yield a uniform suspension (~30 mg protein/ml), aliquoted, and stored at -80° C. until use.
II. Squalene Synthase Assay
The procedure is a modification of those described by Popjack (vida supra) and Poulter et al. in "Squalene synthase. Inhibition by ammonium analogues of carbocationic intermediates in the conversion of presqualene diphosphate to squalene" J. Am. Chem. Soc. 111, 3734-3739 (1989). The assay is performed in 1 ml of 50 mM assay buffer, pH 7.4, containing 10 mM MgCl2, 0.5 mM NADPH, microsomes (30 μg protein), a test compound dissolved in distilled water or dimethylsulfoxide, and substrate [^3 H]FPP (0.5 μM, 0.27 Ci/mmol) in a 16×125 mm glass screw-cap tube. All components except [3H]FPP are preincubated for 10 min. at 37° C. The reaction is initiated by the addition of [^3 H]FPP. After 10 min at 37° C., the reaction is terminated by the addition of 1 ml 15% KOH in ethanol. The tubes are incubated at 65° C. for 30 min. to solubilize proteins. The mixture is extracted with 5 ml petroleum ether for 10 min. After freezing the lower aqueous phase, the organic phase is transferred to glass tubes containing 2 ml distilled water. After washing the lower aqueous phase is frozen and the petroleum ether phase is removed and counted with 10 ml Ready Safe liquid scintillation cocktail using a Beckman LS-9000 scintillation counter. DPM values are adjusted against a blank (no enzyme).
The difference in radioactivity in the presence and absence of the test compound is used to determine the level of inhibition. The IC50 values are calculated using a linear regression program of Tallarida and Murray (1987). Tallarida, R. J. and Murray, R. B. Manual of pharmacologic calculations with computer programs. Springer-Verlag, 1987.

Row | IC50 [nM] | Compound
1 | 51 | O=C(O)CC(O)(CC(=O)N1CCCC(COCc2ccc(-c3nc4ccccc4o3)cc2)C1)C(=O)O (stereo not drawn) [Example 19, 4-[3-(4-(Benzoxazol-2-yl)benzyloxymethyl)piperidin-1-ylcarbonyl]-3-hydroxy-3-carboxybutanoic acid, disodium salt]
2 | 100 | COc1cccc(-c2ccc(C3(O)CCCN(C(=O)CC(O)(CC(=O)O)C(=O)O)C3)cc2)c1 (stereo not drawn) [Example 24, disodium salt]
3 | 100 | CC(O)(CNC(=O)C(O)(CC(=O)O)CC(=O)O)c1ccc(-c2ccc3ccccc3c2)cc1 (stereo not drawn) [Example 28, 3-Hydroxy-3-{-N-[2-hydroxy-2-(4-naphthalen-2-yl-phenyl)prop-2-yl]carbamoyl}pentandioic acid, disodium salt]
4 | 10000 | CCOC(=O)CC(O)(CC(=O)N[C@@H]1CCCC[C@H]1OCc1ccc(-c2nc3ccccc3o2)cc1)C(=O)OCC (relative stereo)
5 | 190 | O=C(O)CC(O)(CC(=O)N[C@@H]1CCCC[C@H]1OCc1ccc(-c2nc3ccccc3o2)cc1)C(=O)O (relative stereo) [Example 5, 4-[2-α-(4-Benzoxazol-2-ylbenzyloxy)cyclohexyl-β-carbamoyl]-3-hydroxy-3-carboxybutyric acid]
6 | 77 | CC[C@@H](COCc1ccc(-c2nc3ccccc3o2)cc1)NC(=O)CC(O)(CC(=O)O)C(=O)O (stereo partly drawn) [Example 22, 3-{N-[1-(4-Benzoxazol-2-ylbenzyloxy)but-2-yl]carbamoyl}-3-hydroxy-3-carboxybutanoic acid, disodium salt]
7 | 2600 | O=C(O)CC(NC(=O)NC1CCCCC1OCc1ccc(-c2nc3ccccc3o2)cc1)C(=O)O [Example 30, 3-(R)-(N-{2-α-[4-(Benzoxazol-2-yl)benzyloxy]cyclohexyl}-β-carbamoylaza)-3-carboxypropanoic acid]
8 | 36 | 4-{3-[4-(2-methoxyquinolin-6-yl)phenyl]-1,2,5,6-tetrahydro-pyridylcarbonyl}-3-hydroxy-3-carboxybutanoic acid, disodium salt [Example 12]
9 | 27 | O=C(O)CC(O)(CC(=O)N1CCCC(O)(c2ccc(-c3ccc4ccccc4c3)cc2)C1)C(=O)O (stereo not drawn) [Example 1, 4-[3-Hydroxy-3-(4-naphth2-ylphenyl)piperidin-1-ylcarbonyl]-3-hydroxy-3-carboxybutanoic acid]

— US5556990A, “Polyarylcarbamoylaza- and -carbamoylalkanedioic acids” (Rhone-Poulenc Rorer Pharmaceuticals Inc., priority 1994, dated 1996)
